Results published in patent US11518760B2 (Liverpool School of Tropical Medicine, priority 2017, dated 2022).

Each compound was assayed on C6/36 Aedes albopictus cell line infected with Wolbachia pipientis (Wolbachia strain wAlbB) (assay: In vitro insect cell line assay (anti-Wolbachia screen, SYTO 11 high content imaging)). Details: 168 h; C6/36 Aedes albopictus cells infected with Wolbachia pipientis wAlbB, 7 days incubation, SYTO 11 imaging; read-out: In vitro anti-Wolbachia activity.
Assay type: cell-based
Procedure, shortened: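 SYTO 11 staining (15 min), high-content imaging and texture analysis were the read-out on day 7. Before that, C6/36 mosquito cells carrying Wolbachia strain wAlbB were incubated at 26 °C with test compound at 5 μM final, alongside DMSO-only control wells.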

Compared with `CC1(C)CN(c2nc(NCc3ccccc3C(F)(F)F)c3cccnc3n2)CCO1` [Example 247, 2-(2,2-dimethylmorpholino)-N-(2-(trifluoromethyl)benzyl)pyrido[2,3-d]pyrimidin-4-amine], `N#CC1CN(c2nc(NCc3ccccc3C(F)(F)F)c3cccnc3n2)C1` [Example 245, 1-(4-((2-(trifluoromethyl)benzyl)amino)pyrido[2,3-d]pyrimidin-2-yl)azetidine-3-carbonitrile] is higher in EC50: < 0.01 nM for the first, 1 to 10 nM for the second. The first is the more potent here.

Compared with `CC(C)N(C)c1nc(NCc2cccnc2C(F)(F)F)c2ccccc2n1` [Example 176, N^2-isopropyl-N^2-methyl-N^4-((2-(trifluoromethyl)pyridin-3-yl)methyl)quinazoline-2,4-diamine], `CN(c1nc(NCc2cccnc2C(F)(F)F)c2cccnc2n1)C1CC1` [Example 175, N^2-cyclopropyl-N^2-methyl-N^4-((2-(trifluoromethyl)pyridin-3-yl)methyl)pyrido[2,3-d]pyrimidine-2,4-diamine] is lower in EC50: 100 to 1000 nM for the first, 1 to 10 nM for the second.

`CC(Nc1ncnc2cc(C#N)sc12)c1ccccc1C(F)(F)F` (centres unmarked) [Example 102, 4-((1-(2-(trifluoromethyl)phenyl)ethyl)amino)thieno[3,2-d]pyrimidine-6-carbonitrile] and `CC(Nc1ncnc2cc(Cl)sc12)c1ccccc1C(F)(F)F` (centres unmarked) [Example 101] fall in the same range of EC50: 1000 to 100000 nM for the first, 1000 to 100000 nM for the second.

`CCN(Cc1ccccc1C(F)(F)F)c1ncnc2ccsc12` [Example 54, N-ethyl-N-(2-(trifluoromethyl)benzyl)thieno[3,2-d]pyrimidin-4-amine] and `CN(Cc1ccccc1C(F)(F)F)c1nc(Cl)nc2ccsc12` [Example 49, 2-chloro-N-methyl-N-(2-(trifluoromethyl)benzyl)thieno[3,2-d]pyrimidin-4-amine] fall in the same range of EC50: 1 to 10 nM for the first, 1 to 10 nM for the second.

`FC(F)(F)c1ncccc1CNc1nc(NC2CC2)nc2ncccc12` [Example 159, N^2-cyclopropyl-N^4-((2-(trifluoromethyl)pyridin-3-yl)methyl)pyrido[2,3-d]pyrimidine-2,4-diamine] and `FC(F)(F)c1ccccc1CNc1nc(NC2CC2)nc2ncccc12` [Example 156, N^2-cyclopropyl-N^4-(2-(trifluoromethyl)benzyl)pyrido[2,3-d]pyrimidine-2,4-diamine] fall in the same range of EC50: 1 to 10 nM for the first, 1 to 10 nM for the second.

First: FC(F)(F)c1ncccc1CNc1nc(N2CCOCC2)nc2ncccc12 [Example 192, 2-morpholino-N-((2-(trifluoromethyl)pyridin-3-yl)methyl)pyrido[2,3-d]pyrimidin-4-amine]
Second: FC(F)(F)c1ncccc1CNc1nc(N2CCOC3(CC3)C2)nc2ncccc12 [Example 256, 2-(4-oxa-7-azaspiro[2.5]octan-7-yl)-N-((2-(trifluoromethyl)pyridin-3-yl)methyl)pyrido[2,3-d]pyrimidin-4-amine]
The EC50 of the first is higher: 10 to 100 nM for the first, < 0.01 nM for the second.

`CC(C)Nc1nc(NCc2ccc(S(C)(=O)=O)cc2)c2ncccc2n1` [Example 123, N^2-isopropyl-N^4-(4-(methylsulfonyl)benzyl)pyrido[3,2-d]pyrimidine-2,4-diamine] and `COc1ccc(CNc2nc(NC(C)C)nc3ccsc23)cc1` [Example 131, N^2-isopropyl-N^4-(4-methoxybenzyl)thieno[3,2-d]pyrimidine-2,4-diamine] fall in the same range of EC50: 1000 to 100000 nM for the first, 1000 to 100000 nM for the second.

Compared with `FC(F)(F)OCC1CCCN1c1nc(NCc2cccnc2C(F)(F)F)c2cccnc2n1` (centres unmarked) [Example 299, 2-(2-((trifluoromethoxy)methyl)pyrrolidin-1-yl)-N-((2-(trifluoromethyl)pyridin-3-yl)methyl)pyrido[2,3-d]pyrimidin-4-amine], `FC(F)(F)c1ncccc1CNc1nc(N2CC(C(F)(F)F)C2)nc2ncccc12` [Example 202, 2-(3-(trifluoromethyl)azetidin-1-yl)-N-((2-(trifluoromethyl)pyridin-3-yl)methyl)pyrido[2,3-d]pyrimidin-4-amine] is higher in EC50: < 0.01 nM for the first, 1 to 10 nM for the second.

First: CC(C)N(C)c1nc(N2CCCCC2c2ccccc2C(F)(F)F)c2cccnc2n1 (centres unmarked) [Example 186, N-isopropyl-N-methyl-4-(2-(2-(trifluoromethyl)phenyl)piperidin-1-yl)pyrido[2,3-d]pyrimidin-2-amine]
Second: C[C@H]1COCCN1c1nc(N2CCC2c2ccccc2C(F)(F)F)c2cccnc2n1 (stereo partly drawn) [Example 291, (3S)-3-methyl-4-(4-(2-(2-(trifluoromethyl)phenyl)azetidin-1-yl)pyrido[2,3-d]pyrimidin-2-yl)morpholine]
The EC50 of the first is higher: 1000 to 100000 nM for the first, 0.01 to 1 nM for the second.

`Fc1ccc(CNc2ncnc3ccccc23)c(C(F)(F)F)c1` [Example 72, N-(4-fluoro-2-(trifluoromethyl)benzyl)quinazolin-4-amine] and `CNc1nc(NCc2ccccc2C(F)(F)F)c2cccnc2n1` [Example 143, N^2-methyl-N^4-(2-(trifluoromethyl)benzyl)pyrido[2,3-d]pyrimidine-2,4-diamine] fall in the same range of EC50: 10 to 100 nM for the first, 10 to 100 nM for the second.

`FC(F)(F)c1ncccc1CNc1nc(N2CCOC3CC32)nc2ncccc12` (centres unmarked) [Example 294, 2-(2-oxa-5-azabicyclo[4.1.0]heptan-5-yl)-N-((2-(trifluoromethyl)pyridin-3-yl)methyl)pyrido[2,3-d]pyrimidin-4-amine] and `CC1(C)COCCN1c1nc(NCc2cccnc2C(F)(F)F)c2cccnc2n1` [Example 240, 2-(3,3-dimethylmorpholino)-N-((2-(trifluoromethyl)pyridin-3-yl)methyl)pyrido[2,3-d]pyrimidin-4-amine] fall in the same range of EC50: 0.01 to 1 nM for the first, 0.01 to 1 nM for the second.

Compared with `FC(F)(F)c1nc(NCc2ccccc2C(F)(F)F)c2sccc2n1` [Example 56, 2-(trifluoromethyl)-N-(2-(trifluoromethyl)benzyl)thieno(3,2-d]pyrimidin-4-amine], `CC(C)(O)c1nc(NCc2ccccc2C(F)(F)F)c2sccc2n1` [Example 86] is higher in EC50: 10 to 100 nM for the first, 1000 to 100000 nM for the second.

First: FC(F)(F)c1ccccc1CNc1nc(CN2CCC(Cl)CC2)nc2ncccc12 [Example 222]
Second: FC1(F)CCN(Cc2nc(NCc3cccnc3C(F)(F)F)c3cccnc3n2)CC1 [Example 228, 2-((4,4-difluoropiperidin-1-yl)methyl)-N-((2-(trifluoromethyl)pyridin-3-yl)methyl)pyrido[2,3-d]pyrimidin-4-amine]
The EC50 of the first is higher: 1000 to 100000 nM for the first, 100 to 1000 nM for the second.

First: CCN(CC)c1ncnc2ccsc12 [Example 39]
Second: Cc1nc(N(C)C(C)c2ccccc2C(F)(F)F)c2sccc2n1 (centres unmarked) [Example 66, N,2-dimethyl-N-(1-(2-(trifluoromethyl)phenyl)ethyl)thieno[3,2-d]pyrimidin-4-amine]
The EC50 of the first is higher: 1000 to 100000 nM for the first, 1 to 10 nM for the second. The second is the more potent here.

First: CC(C)Nc1nc(Nc2ccccc2C(F)(F)F)c2sccc2n1 [Example 59, N^2-isopropyl-N^4-(2-(trifluoromethyl)phenyl)thieno[3,2-d]pyrimidin-2,4-amine]
Second: CC(C)Nc1nc(NCc2ccccc2C(F)(F)F)c2sccc2n1 [Example 28, N^2-isopropyl-N^4-(2-(trifluoromethyl)benzyl)thieno[3,2-d]pyrimidine-2,4-diamine]
The EC50 of the first is higher: 100 to 1000 nM for the first, 10 to 100 nM for the second. The second is the more potent here.

`CC(C)Nc1nc(NCc2c(Cl)cccc2Cl)c2sccc2n1` [Example 27, N^4-(2,6-dichlorobenzyl)-N-isopropylthieno[3,2-d]pyrimidine-2,4-diamine] and `CC(C)Nc1nc(NCc2cccc(Cl)c2)c2sccc2n1` [Example 18, N^4-(3-chlorobenzyl)-N^2-isopropyithieno[3,2-d]pyrimidine-2,4-diamine] fall in the same range of EC50: 1000 to 100000 nM for the first, 1000 to 100000 nM for the second.

Compared with `COc1ccccc1CNc1nc(NCCCN2CCCC2=O)c2sccc2n1` [Example 35, 1-(3-((2-((2-methoxybenzyl)amino)thieno[3,2-d]pyrimidin-4-yl)amino)propyl)pyrrolidin-2-one], `COc1ccccc1CNc1nc(NC(C)C)nc2ccsc12` [Example 132, N^2-isopropyl-N^4-(2-methoxybenzyl)thieno[3,2-d]pyrimidine-2,4-diamine] is higher in EC50: 100 to 1000 nM for the first, 1000 to 100000 nM for the second.

`CC(Nc1ncnc2c(Br)csc12)c1ccccc1C(F)(F)F` (centres unmarked) [Example 106, 7-bromo-N-(1-(2-(trifluoromethyl)phenyl)ethyl)thieno[3,2-d]pyrimidin-4-amine] and `CC(Nc1ncnc2cc(-c3ccccc3)sc12)c1ccccc1C(F)(F)F` (centres unmarked) [Example 98, 6-phenyl-N-(1-(2-(trifluoromethyl)phenyl)ethyl)thieno[3,2-d]pyrimidin-4-amine] fall in the same range of EC50: 1000 to 100000 nM for the first, 1000 to 100000 nM for the second.

Compared with `CC1COCCN1c1nc(NCc2ccccc2C(F)(F)F)c2cncnc2n1` (centres unmarked) [Example 307, 2-(3-methylmorpholino)-N-(2-(trifluoromethyl)benzyl)pyrimido[4,5-d]pyrimidin-4-amine], `CC1COCCN1c1nc(NCc2cccnc2C(F)(F)F)c2nccnc2n1` (centres unmarked) [Example 309, 2-(3-methylmorpholino)-N-((2-(trifluoromethyl)pyridin-3-yl)methyl)pteridin-4-amine] is lower in EC50: 1000 to 100000 nM for the first, 100 to 1000 nM for the second. The second is the more potent here.

`CC(C)Nc1nc(NCc2ccc(C(F)(F)F)nc2)c2sccc2n1` [Example 119, N^2-isopropyl-N^4-((6-(trifluoromethyl)pyridin-3-yl)methyl)thieno[3,2-d]pyrimidine-2,4-diamine] and `FC(F)(F)c1ccccc1CNc1nc(NC2CC2)nc2ccsc12` [Example 43, N^2-cyclopropyl-N^4-(2-(trifluoromethyl)benzyl)thieno[3,2-d]pyrimidine-2,4-diamine] fall in the same range of EC50: 100 to 1000 nM for the first, 100 to 1000 nM for the second.

First: FC(F)(F)c1ncccc1CNc1ncnc2ncc(Br)cc12 [Example 180]
Second: N#CC1CCN(c2nc(NCc3cccnc3C(F)(F)F)c3cccnc3n2)CC1 [Example 234, 1-(4-(((2-(trifluoromethyl)pyridin-3-yl)methyl)amino)pyrido[2,3-d]pyrimidin-2-yl)piperidine-4-carbonitrile]
The EC50 of the first is higher: 1000 to 100000 nM for the first, 1 to 10 nM for the second.

First: FC(F)(F)c1ncccc1CNc1nc(N2CCOC3(CCCC3)C2)nc2ncccc12 [Example 272, 2-(6-oxa-9-azaspiro[4.5]decan-9-yl)-N-((2-(trifluoromethyl)pyridin-3-yl)methyl)pyrido[2,3-d]pyrimidin-4-amine]
Second: Cc1nc(NCc2ccccc2C(F)(F)F)c2sccc2n1 [Example 55, 2-methyl-N-(2-(trifluoromethyl)benzyl)thieno[3,2-d]pyrimidin-4-amine]
The EC50 of the first is lower: 0.01 to 1 nM for the first, 10 to 100 nM for the second.
